Data taken from patent US4518611A, “2-Furylbutyrolactone modulation of the immune system in mammals” (priority 1983, dated 1985).
Entries after “also recorded” stand apart in the source; their conditions may differ.

Columns and labels:
[1] = system: L5178Y target cells; assay: MLTC assay of cytotoxic lymphocyte (CTL) activity, L5178Y target cells; assay type: cell-based, mouse, DBA/2; conditions: for CTL activity (in words): with or without stimulator cells, any E/T ratio
Excerpt: A mixed lymphocyte tumor culture (MLTC) immunoassay, used to determine the cytotoxic lymphocyte (CTL) activity employs lymphocytes from either immunized (sensitized) mice or DBA/2 tumor dormant state animals in various stages of the tumor dormant state (TDS). The assay employs L5178Y target cells labeled with ^51 Chromium and effector cells (sensitized lymphocytes) from the above-mentioned sources. Effector-target cell ratios will vary with different experimental conditions and may or may not include irradiated stimulator L5178Y cells. Results are expressed as % lysis of target cells based on ratio of cpm of test group over cpm of total release (maximum) both of which are corrected for spontaneous release of ^51 Cr. The assay can be performed as an 8 or 18 hour release assay.
Ten days later the resultant tumor nodule, about 1 cm in size, is surgically excised. If the excision was successful, no subcutaneous tumors develop at the site of implantation. […] These mice are considered to be in the tumor dormant state. […]
DBA/2 mice in the early stage of TDS, prior to challenge with viable L5178Y tumor cells, were used to measure the effect of Cpd. 2 on CTL activity. Cpd. 2, 0.1, 1.0, 10 or 100 μg/ml, or just buffer was added in 100 ul volumes to MLTC microculture wells containing washed spleen lymphocytes from DBA/2 mice, effector, and L5178Y target cells at varying ^E /T ratios. The MLTC reaction was performed in the presence or absence of irradiated L5178Y stimulator cells. […]

[2] = system: spleen lymphocytes; assay: In vitro lymphocyte stimulation assay, C57BL/6 spleen lymphocytes; assay type: cell-based, mouse
Description: The purpose of this assay is to challenge lymphocytes in microcultures with one or more polyclonal mitogens at concentrations that will induce mitogenesis within 72 hours of stimulation.
In the mouse model, spleens are removed from different strains of mice and the spleen cells are teased free and suspended in RPMI-1640 tissue culture medium at a concentration of usually […]. These cells are dispensed at a concentration of 5.0×10^5 cells per microculture well in a 96 well flat bottom 96 well tissue culture plate. All testing of the compounds of this invention or mitogens are done in replicates of 10. The cells are then treated with PHA, Con-A, specific antigens, or buffer only. If in vitro testing is done, varying concentrations of the compounds of this invention or buffer only are added to the cells as well. After treatment with the mitogens and/or compounds of this invention, the cells are incubated for 72 hours. The response of these cells to mitogens and/or the compounds of this invention is assessed using ^14 C-thymidine labeling on the fourth day at a concentration of 0.01 μCi/well. The labeled cells are harvested using a lymphocyte harvestor and placed onto fibrous paper discs. A scintillation cocktail is added to vials containing the discs and the results are obtained using a LKB-liquid scintillation counter (Model 1216/Rackbeta II). The data is expressed as a ratio of the cpm of the mitogen stimulated group to the control (nonmitogen) treated group=lymphocyte stimulation index (LSI).
The lymphocyte stimulation assay may be performed directly on spleen cells obtained from various strains of mice not treated with the compounds of this invention or on lymphocytes obtained from human […]. […] Alternatively, the mice may be treated in vivo with the compounds of this invention by intraperitoneal multi-dose schedules, followed by sacrifice and harvesting spleen lymphocytes. These cells are then tested for their response to polyclonal mitogens or specific antigens used to immunize the mice. In this system however, no additional compound is added to the in vitro lymphocyte stimulation assay system.
An in vitro lymphocyte stimulation assay is performed directly on normal spleen lymphocytes removed from five normal C57BL/6 mice, using concentrations of Cpd. […] Following three days of incubation the assay is completed.
An in vitro lymphocyte stimulation assay was performed using spleen lymphocytes from normal C57BL/6 mice. The lymphocytes were treated with either 1, 5, 10, 50 or 100 μg/well of Cpd. 1 or buffer.
Cpd. 2 was tested using normal spleen lymphocytes from C57BL/6 mice. A lymphocyte stimulation assay was conducted using either 1, 5, 10, 50, or 100 μg/well […] or just buffer.
Spleen cells from C57BL/6 mice were treated, in vitro, with the crystallizing reagents, succinic acid and succinimide. Since these compounds are spontaneously released from the molecular complex in solution at a molar ratio of 2 moles of Cpds. 1, 2, or 3 per mole of the crystalline reagent, these reagents were treated in the lymphocyte stimulation assay at proper molar concentrations.
The compound of example 3, Cpd. 3, was used to treat C57BL/6 spleen lymphocytes in vitro. The lymphocytes were treated with either 1, 5, 10, 50, or 100 μg/well of Cpd. 3 or just buffer and then a lymphocyte stimulation assay was performed.

2-furylbutyrolactone:succinimide [Cpd. 2]
% Lysis ([1]; 0.1 μg/ml, E/T 12.5:1, pre-challenge TDS, with stimulator cells): 47.5% | % Lysis ([1]; 0.1 μg/ml, E/T 12.5:1, pre-challenge TDS, without stimulator cells): 16.5% | % Lysis ([1]; 0.1 μg/ml, E/T 25:1, pre-challenge TDS, with stimulator cells): 64.0% | % Lysis ([1]; 0.1 μg/ml, E/T 25:1, pre-challenge TDS, without stimulator cells): 29.5% | % Lysis ([1]; 0.1 μg/ml, E/T 50:1, pre-challenge TDS, with stimulator cells): 69.5% | % Lysis ([1]; 0.1 μg/ml, E/T 50:1, pre-challenge TDS, without stimulator cells): 43.5% | % Lysis ([1]; 0.1 μg/ml, E/T 100:1, pre-challenge TDS, with stimulator cells): 74.5% | % Lysis ([1]; 0.1 μg/ml, E/T 100:1, pre-challenge TDS, without stimulator cells): 48.0% | % Lysis ([1]; 1 μg/ml, E/T 12.5:1, pre-challenge TDS, with stimulator cells): 58.0% | % Lysis ([1]; 1 μg/ml, E/T 25:1, pre-challenge TDS, with stimulator cells): 69.5% | % Lysis ([1]; 1 μg/ml, E/T 50:1, pre-challenge TDS, with stimulator cells): 72.5% | % Lysis ([1]; 1 μg/ml, E/T 100:1, pre-challenge TDS, with stimulator cells): 75.5% | % Lysis ([1]; 10 μg/ml, E/T 12.5:1, pre-challenge TDS, with stimulator cells): 58.5% | % Lysis ([1]; 10 μg/ml, E/T 12.5:1, pre-challenge TDS, without stimulator cells): 26.5% | % Lysis ([1]; 10 μg/ml, E/T 25:1, pre-challenge TDS, with stimulator cells): 72.5% | % Lysis ([1]; 10 μg/ml, E/T 25:1, pre-challenge TDS, without stimulator cells): 40.0% | % Lysis ([1]; 10 μg/ml, E/T 50:1, pre-challenge TDS, with stimulator cells): 72.5% | % Lysis ([1]; 10 μg/ml, E/T 50:1, pre-challenge TDS, without stimulator cells): 56.5% | % Lysis ([1]; 10 μg/ml, E/T 100:1, pre-challenge TDS, with stimulator cells): 73.5% | % Lysis ([1]; 10 μg/ml, E/T 100:1, pre-challenge TDS, without stimulator cells): 61.5% | % Lysis ([1]; 100 μg/ml, E/T 12.5:1, pre-challenge TDS, with stimulator cells): 47.0% | % Lysis ([1]; 100 μg/ml, E/T 25:1, pre-challenge TDS, with stimulator cells): 65.0% | % Lysis ([1]; 100 μg/ml, E/T 50:1, pre-challenge TDS, with stimulator cells): 73.5% | % Lysis ([1]; 100 μg/ml, E/T 100:1, pre-challenge TDS, with stimulator cells): 78.5% | CTL activity (in words) ([1]; pre-challenge TDS): increase in CTL activity | Lymphocyte Stimulation Index, Con-A ([2]; 1 μg/well): 147 | Lymphocyte Stimulation Index, Control (no mitogen) ([2]; 1 μg/well): .92 | Lymphocyte Stimulation Index, PHA ([2]; 1 μg/well): 25.4 | Lymphocyte Stimulation Index, Con-A ([2]; 5 μg/well): 148 | Lymphocyte Stimulation Index, Control (no mitogen) ([2]; 5 μg/well): 1.2 | Lymphocyte Stimulation Index, PHA ([2]; 5 μg/well): 29.8 | Lymphocyte Stimulation Index, Con-A ([2]; 10 μg/well): 164 | Lymphocyte Stimulation Index, Control (no mitogen) ([2]; 10 μg/well): 1.1 | Lymphocyte Stimulation Index, PHA ([2]; 10 μg/well): 38.8 | Lymphocyte Stimulation Index, Con-A ([2]; 50 μg/well): 218 | Lymphocyte Stimulation Index, Control (no mitogen) ([2]; 50 μg/well): .80 | Lymphocyte Stimulation Index, PHA ([2]; 50 μg/well): 45.8 | Lymphocyte Stimulation Index, Con-A ([2]; 100 μg/well): 144 | Lymphocyte Stimulation Index, Control (no mitogen) ([2]; 100 μg/well): .49 | Lymphocyte Stimulation Index, PHA ([2]; 100 μg/well): 3.83 | effect on Con-A response (in words) ([2]; in vitro, Con-A): the 200 μg/well dose had a stimulatory effect; also recorded: the 400 μg/well doses had an anti-proliferative effect

Cc1ccc(C2(O)C(=O)OC3C(O)COC32O)o1.Cc1ccc(C2(O)C(=O)OC3C(O)COC32O)o1.O=C1CCC(=O)O1 (stereo not shown) [Cpd. 1, 2-furylbutyrolactone:succinic anhydride]
% Lysis ([1]; 0.001 μg/ml, E/T 10:1, TDS, without stimulator cells): 3.9% | % Lysis ([1]; 0.01 μg/ml, E/T 10:1, TDS, without stimulator cells): 3.5% | % Lysis ([1]; 0.01 μg/ml, E/T 100:1, TDS, without stimulator cells): 26.0% | % Lysis ([1]; 0.1 μg/ml, E/T 10:1, TDS, without stimulator cells): 3.5% | % Lysis ([1]; 0.1 μg/ml, E/T 30:1, TDS, with stimulator cells): 51.0% | % Lysis ([1]; 0.1 μg/ml, E/T 100:1, TDS, with stimulator cells): 79.0% | % Lysis ([1]; 1.0 μg/ml, E/T 10:1, TDS, without stimulator cells): 4.6% | % Lysis ([1]; 1.0 μg/ml, E/T 30:1, TDS, with stimulator cells): 46.0% | % Lysis ([1]; 1.0 μg/ml, E/T 30:1, TDS, without stimulator cells): 20.0% | % Lysis ([1]; 10 μg/ml, E/T 6.25:1, TDS, without stimulator cells): .7% | % Lysis ([1]; 10 μg/ml, E/T 10:1, TDS, without stimulator cells): 4.6% | % Lysis ([1]; 10 μg/ml, E/T 12.5:1, TDS, without stimulator cells): 6.9% | % Lysis ([1]; 10 μg/ml, E/T 25:1, TDS, with stimulator cells): 72.0% | % Lysis ([1]; 10 μg/ml, E/T 25:1, TDS, without stimulator cells): 8.1% | % Lysis ([1]; 10 μg/ml, E/T 30:1, TDS, with stimulator cells): 42.0% | % Lysis ([1]; 100 μg/ml, E/T 6.25:1, TDS, without stimulator cells): 6.1% | % Lysis ([1]; 100 μg/ml, E/T 10:1, TDS, without stimulator cells): 8.6% | % Lysis ([1]; 100 μg/ml, E/T 100:1, TDS, without stimulator cells): 42.0% | % Lysis ([1]; E + D, E/T 10:1, TDS effectors, no stimulators): 9.0% | enhancement of CTL activity (in words) ([1]; L5178Y target, TDS effectors with stimulator cells): significant specific enhancement of CTL activity of effector cells in the presence of stimulator cells | % Lysis ([1]; N + S + D, E/T 30:1, normal spleen cells + stimulators): -9.7% | % Lysis ([1]; N + S + D, E/T 100:1, normal spleen cells + stimulators): -9.5% | CTL activity (in words) ([1]; TDS 10 days after challenge): significant increase in CTL activity | Lymphocyte Stimulation Index, Control (no mitogen) ([2]; 5 μg/well): 1.8 | Lymphocyte Stimulation Index, Control (no mitogen) ([2]; 50 μg/well): .20 | Lymphocyte Stimulation Index, Control (no mitogen) ([2]; 100 μg/well): .20 | Lymphocyte Stimulation Index, Control (no mitogen) ([2]; .001 μg/well): 3.8 | Lymphocyte Stimulation Index, Control (no mitogen) ([2]; .01 μg/well): 3.2 | Lymphocyte Stimulation Index, Control (no mitogen) ([2]; .1 μg/well): 3.2
